From US20250059207A1, “6,6-FUSED HETEROCYCLIC COMPOUNDS AS METTL3 INHIBITORS” (858 Therapeutics, Inc., priority 2021, published 2025)

Each compound was assayed on MOLM-13 cells (assay: Viability assay in MOLM-13 cells (CellTiter-Glo 2.0)). Conditions: Homo sapiens, MOLM-13, 72 h, read-out: MOLM-13 IC50 (cell viability).
Format: cell-based, human
Procedure: Effects of test compounds on the proliferation and viability of human AML cells was evaluated using the MOLM-13 cell line (AddexBio Technologies cat. no. C0003003). […] Test compounds or controls (Bortezomib or DMSO) diluted in 2% DMSO/media were added to each well for final concentrations of 0.2% DMSO and 0.1-1 μM Bortezomib. The cells were incubated for 72 hours at 37° C. and 5% CO2. At the end of the 72 hour incubation, plates were removed from the incubator, cooled to room temperature and equal volume of CellTiter-Glo 2.0 (Promega) added to each well. After mixing and incubating the plate at room temperature for 10 minutes the luminescence was read using a plate reader. […] Concentration-response-curves and IC50 values were generated using Collaborative Drug Discovery software.

**Q.** With O=c1c2cncc(-c3ccccc3)c2ccn1Cc1cn2cc(-c3cc(N4CCC4)ccn3)ccc2n1 [Compound 105, 2-((6-(4-(azetidin-1-yl)pyridin-2-yl)imidazo[1,2-a]pyridin-2-yl)methyl)-5-phenyl-2,7-naphthyridin-1(2H)-one] as the compound, how does the IC50 read?
**A.** The IC50 was 1 to 10 µM.

Same assay, conditions: MOLM-13 human AML cells, 72 hours, CellTiter-Glo 2.0; read-out: MOLM-13 IC50 (cell viability)

**Q.** For CC1(C)CCN(Cc2ccc3nc(Cn4ccc5c(N6CCC(F)(F)CC6)cncc5c4=O)cn3c2)CC1 [Compound 112, 5-(4,4-difluoropiperidin-1-yl)-2-({6-[(4,4-dimethylpiperidin-1-yl)methyl]imidazo[1,2-a]pyridin-2-yl}methyl)-1,2-dihydro-2,7-naphthyridin-1-one], which IC50 is on record?
**A.** Its IC50 is 1 to 10 µM.

**Q.** For O=c1c2cncc(N3CC4(CCC(F)(F)CC4)C3)c2ccn1Cc1cn2cc(CNCC3CC(F)C3)ccc2n1 (centres unmarked) [Compound 146, 5-{7,7-difluoro-2-azaspiro[3.5]nonan-2-yl}-2-{[6-({[(3-fluorocyclobutyl)methyl]amino}methyl)imidazo[1,2-a]pyridin-2-yl]methyl}-1,2-dihydro-2,7-naphthyridin-1-one], which IC50 is on record?
**A.** Its IC50 is 1 to 10 µM.

**Q.** For O=c1c2cncc(N3CC4(CCCOC4)C3)c2ccn1Cc1cn2cc(CNCC3CC(F)C3)ccc2n1 (centres unmarked) [Compound 145, 2-{[6-({[(3-fluorocyclobutyl)methyl]amino}methyl)imidazo[1,2-a]pyridin-2-yl]methyl}-5-{6-oxa-2-azaspiro[3.5]nonan-2-yl}-1,2-dihydro-2,7-naphthyridin-1-one], which IC50 is on record?
**A.** Its IC50 is 1 to 10 µM.

**Q.** Which IC50 does the source give for Cc1ccc2nc(Cn3ccc4c(-c5c(C)cccc5F)cncc4c3=O)cn2c1 [Compound 30, 5-(2-fluoro-6-methylphenyl)-2-((6-methylimidazo[1,2-a]pyridin-2-yl)methyl)-2,7-naphthyridin-1(2H)-one] here?
**A.** The IC50 was > 10 µM.

**Q.** Cc1ccc2nc(Cn3ccc4c(-c5cccnc5)cncc4c3=O)cn2c1 [Compound 17, 2-((6-methylimidazo[1,2-a]pyridin-2-yl)methyl)-5-(pyridin-3-yl)-2,7-naphthyridin-1(2H)-one] was tested. Which IC50 did it give?
**A.** The IC50 was > 10 µM.

**Q.** With O=c1c2cncc(N3CC4(CCOCC4)C3)c2ccn1Cc1cn2cc(CN3CCC4(CC3)CC4(F)F)ccc2n1 [Compound 141, 2-{[6-({1,1-difluoro-6-azaspiro[2.5]octan-6-yl}methyl)imidazo[1,2-a]pyridin-2-yl]methyl}-5-{7-oxa-2-azaspiro[3.5]nonan-2-yl}-1,2-dihydro-2,7-naphthyridin-1-one] as the compound, how does the IC50 read?
**A.** Its IC50 is > 10 µM.

**Q.** How did the IC50 turn out when CC(C)(C)CNCc1ccc2nc(Cn3ccc4c(-c5ccccc5)cncc4c3=O)cn2c1 [Compound 73, 2-((6-((neopentylamino)methyl)imidazo[1,2-a]pyridin-2-yl)methyl)-5-phenyl-2,7-naphthyridin-1(2H)-one] was run?
**A.** The IC50 was 1 to 10 µM.

**Q.** Cc1ccc(CNCc2ccc3nc(Cn4ccc5c(-c6ccccc6)cncc5c4=O)cn3c2)cc1 [Compound 86, 2-((6-(((4-methylbenzyl)amino)methyl)imidazo[1,2-a]pyridin-2-yl)methyl)-5-phenyl-2,7-naphthyridin-1(2H)-one] was tested. Which IC50 did it give?
**A.** Its IC50 is 1 to 10 µM.

**Q.** How did the IC50 turn out when Cc1ccc2nc(Cn3ccc4c(C5CC5)cncc4c3=O)cn2c1 [Compound 11, 5-cyclopropyl-2-((6-methylimidazo[1,2-a]pyridin-2-yl)methyl)-2,7-naphthyridin-1(2H)-one] was run?
**A.** Its IC50 is > 10 µM.

**Q.** With O=c1c2cncc(C3CCC3)c2ccn1Cc1cn2cc(CNCC3CC(F)C3)ccc2n1 (centres unmarked) [Compound 156, 5-cyclobutyl-2-{[6-({[(3-fluorocyclobutyl)methyl]amino}methyl)imidazo[1,2-a]pyridin-2-yl]methyl}-1,2-dihydro-2,7-naphthyridin-1-one] as the compound, how does the IC50 read?
**A.** The IC50 was > 10 µM.

**Q.** How did the IC50 turn out when O=c1c2cncc(-c3ccccc3F)c2ccn1Cc1cn2cc(CNCC34CC(F)(C3)C4)ccc2n1 [Compound 154, 2-[(6-{[({3-fluorobicyclo[1.1.1]pentan-1-yl}methyl)amino]methyl}imidazo[1,2-a]pyridin-2-yl)methyl]-5-(2-fluorophenyl)-1,2-dihydro-2,7-naphthyridin-1-one] was run?
**A.** The IC50 was 1 to 10 µM.

**Q.** With CC1(C)CCN(Cc2ccc3nc(Cn4ccc5c(-c6ccc(S(N)(=O)=O)cc6)cncc5c4=O)cn3c2)CC1 [Compound 123, 4-[7-({6-[(4,4-dimethylpiperidin-1-yl)methyl]imidazo[1,2-a]pyridin-2-yl}methyl)-8-oxo-7,8-dihydro-2,7-naphthyridin-4-yl]benzene-1-sulfonamide] as the compound, how does the IC50 read?
**A.** Its IC50 is > 10 µM.

**Q.** With CC(=O)Nc1ccc(-c2cncc3c(=O)n(Cc4cn5cc(C)ccc5n4)ccc23)cn1 [Compound 38, N-(5-(7-((6-methylimidazo[1,2-a]pyridin-2-yl)methyl)-8-oxo-7,8-dihydro-2,7-naphthyridin-4-yl)pyridin-2-yl)acetamide] as the compound, how does the IC50 read?
**A.** Its IC50 is > 10 µM.

**Q.** Which IC50 does the source give for CC(=O)Nc1ccc(-c2cncc3c(=O)n(Cc4cn5cc(CNCC6CC(F)C6)ccc5n4)ccc23)cn1 (centres unmarked) [Compound 87, N-(5-(7-((6-((((3-fluorocyclobutyl)methyl)amino)methyl)imidazo[1,2-a]pyridin-2-yl)methyl)-8-oxo-7,8-dihydro-2,7-naphthyridin-4-yl)pyridin-2-yl)acetamide] here?
**A.** Its IC50 is 1 to 10 µM.

**Q.** For O=c1c2cncc(N3CC4(CCOCC4)C3)c2ccn1Cc1cn2cc(CN3CCC4(CCC4)CC3)ccc2n1 [Compound 129, 2-((6-((7-azaspiro[3.5]nonan-7-yl)methyl)imidazo[1,2-a]pyridin-2-yl)methyl)-5-(7-oxa-2-azaspiro[3.5]nonan-2-yl)-2,7-naphthyridin-1(2H)-one], which IC50 is on record?
**A.** Its IC50 is 1 to 10 µM.

**Q.** CN1CCN(C2CN(c3cncc4c(=O)n(Cc5cn6cc(CN7CCC(C)(C)CC7)ccc6n5)ccc34)C2)CC1 [Compound 126, 2-({6-[(4,4-dimethylpiperidin-1-yl)methyl]imidazo[1,2-a]pyridin-2-yl}methyl)-5-[3-(4-methylpiperazin-1-yl)azetidin-1-yl]-1,2-dihydro-2,7-naphthyridin-1-one] was tested. Which IC50 did it give?
**A.** Its IC50 is > 10 µM.

**Q.** With O=c1c2cncc(C3CC3)c2ccn1Cc1cn2cc(CNCC3CCC3)ccc2n1 [Compound 88, 2-((6-(((cyclobutylmethyl)amino)methyl)imidazo[1,2-a]pyridin-2-yl)methyl)-5-cyclopropyl-2,7-naphthyridin-1(2 h)-one] as the compound, how does the IC50 read?
**A.** Its IC50 is 1 to 10 µM.

**Q.** Which IC50 does the source give for Cc1ccc2nc(Cn3ccc4c(N5CC(c6ccccc6)C5)cncc4c3=O)cn2c1 [Compound 7, 2-((6-methylimidazo[1,2-a]pyridin-2-yl)methyl)-5-(3-phenylazetidin-1-yl) 2,7-naphthyridin-1(2H)-one] here?
**A.** The IC50 was > 10 µM.

**Q.** CCNc1ccc2ccc(-c3ccc(Cn4ccc5c(-c6ccccc6)cncc5c4=O)cc3)cc2n1 [Compound 93, 2-(4-(2-(ethylamino)quinolin-7-yl)benzyl)-5-phenyl-2,7-naphthyridin-1(2H)-one] was tested. Which IC50 did it give?
**A.** Its IC50 is 1 to 10 µM.

**Q.** Which IC50 does the source give for CC(C)(NCc1ccc2nc(Cn3ccc4c(-c5ccccc5)cncc4c3=O)cn2c1)c1ccccc1 [Compound 81, 5-phenyl-2-((6-(((2-phenylpropan-2-yl)amino)methyl)imidazo[1,2-a]pyridin-2-yl)methyl)-2,7-naphthyridin-1(2H)-one] here?
**A.** The IC50 was 1 to 10 µM.

**Q.** For Cc1ccc2nc(Cn3ccc4c(C#CC5CC5)cncc4c3=O)cn2c1 [Compound 46, 5-(cyclopropylethynyl)-2-((6-methylimidazo[1,2-a]pyridin-2-yl)methyl)-2,7-naphthyridin-1(2H)-one], which IC50 is on record?
**A.** Its IC50 is > 10 µM.

**Q.** With O=c1c2cncc(-c3ccccc3)c2ccn1Cc1cn2cc(CNCC3(O)CCC3)ccc2n1 [Compound 74, 2-((6-((((1-hydroxycyclobutyl)methyl)amino)methyl)imidazo[1,2-a]pyridin-2-yl)methyl)-5-phenyl-2,7-naphthyridin-1(2H)-one] as the compound, how does the IC50 read?
**A.** Its IC50 is > 10 µM.
